Test results as given in US20220062240A1, “METHODS OF TREATING CANCER USING A CLK INHIBITOR” (BioSplice Therapeutics, Inc., priority 2018, published 2022).
Read-outs that look alike come from different tables or passages of the source.

Tests used:
[1] = target: T1, CLK2 (Homo sapiens, UniProt P49760); assay: CLK2 kinase activity assay (Z-lyte, Ser/Thr 6 peptide); assay type: biochemical; conditions: recombinant CLK2 kinase, ATP 60 μM; read-out: EC50
T1 construct: purchased Thermo Fisher (Life Technologies), Z'-LYTE Kinase Assay Kits
T1 sequence (P49760 whole entry): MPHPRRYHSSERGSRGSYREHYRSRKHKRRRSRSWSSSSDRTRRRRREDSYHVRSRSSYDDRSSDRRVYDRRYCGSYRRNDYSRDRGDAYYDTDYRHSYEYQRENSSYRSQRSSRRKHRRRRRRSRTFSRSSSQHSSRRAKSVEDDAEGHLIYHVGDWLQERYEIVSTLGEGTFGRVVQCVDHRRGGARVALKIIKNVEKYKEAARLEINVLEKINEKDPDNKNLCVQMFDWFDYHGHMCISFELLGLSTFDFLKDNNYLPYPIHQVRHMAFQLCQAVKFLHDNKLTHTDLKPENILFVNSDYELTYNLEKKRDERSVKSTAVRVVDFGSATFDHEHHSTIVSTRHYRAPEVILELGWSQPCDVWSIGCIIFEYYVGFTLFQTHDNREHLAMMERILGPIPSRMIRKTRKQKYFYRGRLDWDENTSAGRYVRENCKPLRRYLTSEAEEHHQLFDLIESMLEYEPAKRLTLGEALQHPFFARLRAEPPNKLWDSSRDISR
Experimental: All reactions were performed in duplicate.

[2] = tested on: BT-549; assay: CellTiter-Glo Viability Assay, breast cancer; assay type: cell-based; conditions: Homo sapiens, 96 h; BT-549, breast cancer, four days; read-out: EC50
[3] = tested on: CAMA1; assay: CellTiter-Glo Viability Assay, breast cancer; assay type: cell-based; conditions: Homo sapiens, CAMA-1, 96 h; CAMA1, breast cancer, four days; read-out: EC50
[4] = tested on: DU4475; assay: CellTiter-Glo Viability Assay, breast cancer; assay type: cell-based; conditions: Homo sapiens, DU-4475, 96 h; DU4475, breast cancer, four days; read-out: EC50
[5] = tested on: HCC1599; assay: CellTiter-Glo Viability Assay, breast cancer; assay type: cell-based; conditions: Homo sapiens, 96 h; HCC1599, breast cancer, four days; read-out: EC50
[6] = tested on: MCF7; assay: CellTiter-Glo Viability Assay, breast cancer; assay type: cell-based; conditions: Homo sapiens, 96 h; MCF7, breast cancer, four days; read-out: EC50
[7] = tested on: MDA-MB-231-Luc; assay: CellTiter-Glo Viability Assay, breast cancer; assay type: cell-based; conditions: Homo sapiens, 96 h; MDA-MB-231-Luc, breast cancer, four days; read-out: EC50
[8] = tested on: T47D; assay: CellTiter-Glo Viability Assay, breast cancer; assay type: cell-based; conditions: Homo sapiens, 96 h, breast cancer, four days, read-out: EC50
[9] = tested on: ZR-75-1; assay: CellTiter-Glo Viability Assay, breast cancer; assay type: cell-based; conditions: Homo sapiens, 96 h; ZR-75-1, breast cancer, four days; read-out: EC50
[10] = tested on: all 50 cell lines; assay: CellTiter-Glo Viability Assay, average across all cell lines; assay type: cell-based; conditions: Homo sapiens; across all 50 cell lines; read-out: average EC50 for inhibition of cancer cell proliferation
In short: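 Luminescent ATP read-out (CellTiter-Glo) after a 4-day compound exposure at 37° C served as the viability measure. Cells were seeded at 300-3,000/well, compound wells run in duplicate against DMSO controls, and EC50 values came from fitted dose-response curves.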

[11] = tested on: colorectal cancer (6 cell lines); assay: CellTiter-Glo Viability Assay, colorectal cancer; assay type: cell-based; conditions: Homo sapiens, inhibition of cancer cell proliferation
[12] = tested on: haematopoietic & lymphoid tumors (13 cell lines); assay: CellTiter-Glo Viability Assay, haematopoietic & lymphoid tumors; assay type: cell-based; conditions: Homo sapiens, inhibition of cancer cell proliferation
[13] = tested on: liver cancer (3 cell lines); assay: CellTiter-Glo Viability Assay, liver cancer; assay type: cell-based; conditions: Homo sapiens, inhibition of cancer cell proliferation
[14] = tested on: lung cancer (4 cell lines); assay: CellTiter-Glo Viability Assay, lung cancer; assay type: cell-based; conditions: Homo sapiens, inhibition of cancer cell proliferation
[15] = tested on: ovarian cancer (4 cell lines); assay: CellTiter-Glo Viability Assay, ovarian cancer; assay type: cell-based; conditions: Homo sapiens, inhibition of cancer cell proliferation
[16] = tested on: pancreatic cancer (8 cell lines); assay: CellTiter-Glo Viability Assay, pancreatic cancer; assay type: cell-based; conditions: Homo sapiens, inhibition of cancer cell proliferation
[17] = tested on: prostate cancer (5 cell lines); assay: CellTiter-Glo Viability Assay, prostate cancer; assay type: cell-based; conditions: Homo sapiens
[18] = target: CLK3 (Homo sapiens, UniProt P49761); assay: CLK3 kinase activity assay (Z-lyte, Ser/Thr 18 peptide)
Sequence of CLK3 (P49761 whole entry): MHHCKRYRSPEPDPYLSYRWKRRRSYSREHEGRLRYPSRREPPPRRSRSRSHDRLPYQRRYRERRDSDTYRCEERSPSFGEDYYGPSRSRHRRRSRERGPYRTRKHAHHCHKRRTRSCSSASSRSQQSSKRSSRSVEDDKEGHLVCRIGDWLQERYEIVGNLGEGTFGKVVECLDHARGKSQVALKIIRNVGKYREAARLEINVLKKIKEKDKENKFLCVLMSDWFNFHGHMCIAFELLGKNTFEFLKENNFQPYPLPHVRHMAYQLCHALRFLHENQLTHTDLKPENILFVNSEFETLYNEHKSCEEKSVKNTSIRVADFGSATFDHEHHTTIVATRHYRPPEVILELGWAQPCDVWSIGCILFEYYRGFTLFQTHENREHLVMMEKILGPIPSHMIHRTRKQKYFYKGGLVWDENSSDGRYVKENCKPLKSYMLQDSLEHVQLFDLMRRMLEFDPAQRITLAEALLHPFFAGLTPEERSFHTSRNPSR

EC50 [1]: 0.6 nM
EC50 [2]: 786 nM
EC50 [3]: 3850 nM
EC50 [4]: 411 nM
EC50 [5]: 367 nM
EC50 [6]: 3390 nM
EC50 [7]: 2040 nM
EC50 [8]: 3550 nM
EC50 [9]: 1840 nM
EC50 ([11]; HCT-116, HCT116 cell line, read-out: Colorectal cancer, EC50 (μM) HCT116): 0.611 µM
EC50 ([11]; HT-29, HT29 cell line, read-out: Colorectal cancer, EC50 (μM) HT29): 1.7 µM
EC50 ([11]; SW-620, SW620 cell line, read-out: Colorectal cancer, EC50 (μM) SW620): 0.418 µM
EC50 ([11]; DLD-1 cell line, read-out: Colorectal cancer, EC50 (μM) DLD-1): 0.644 µM
EC50 ([11]; SW48 cell line, read-out: Colorectal cancer, EC50 (μM) SW48): 0.151 µM
EC50 ([11]; SW480 cell line, read-out: Colorectal cancer, EC50 (μM) SW480): 0.769 µM
EC50 ([12]; DND41, DND-41 cell line, read-out: Haematopoietic & Lymphoid tumors, EC50 (μM) DND-41): 0.798 µM
EC50 ([12]; MV4-11, MV-4-11 cell line, read-out: Haematopoietic & Lymphoid tumors, EC50 (μM) MV-4-11): 0.057 µM
EC50 ([12]; Rec1, REC-1 cell line, read-out: Haematopoietic & Lymphoid tumors, EC50 (μM) REC-1): 0.261 µM
EC50 ([12]; SU-DHL-4, SUDHL4 cell line, read-out: Haematopoietic & Lymphoid tumors, EC50 (μM) SUDHL4): 0.779 µM
EC50 ([12]; HL-60 cell line, read-out: Haematopoietic & Lymphoid tumors, EC50 (μM) HL-60): 1.64 µM
EC50 ([12]; JM1 cell line, read-out: Haematopoietic & Lymphoid tumors, EC50 (μM) JM1): 0.237 µM
EC50 ([12]; JURKAT, Clone E6-1 cell line, read-out: Haematopoietic & Lymphoid tumors, EC50 (μM) JURKAT, Clone E6-1): 0.88 µM
EC50 ([12]; JeKo-1 cell line, read-out: Haematopoietic & Lymphoid tumors, EC50 (μM) JeKo-1): 0.201 µM
EC50 ([12]; KASUMI-1 cell line, read-out: Haematopoietic & Lymphoid tumors, EC50 (μM) KASUMI-1): 0.273 µM
EC50 ([12]; Loucy cell line, read-out: Haematopoietic & Lymphoid tumors, EC50 (μM) Loucy): 0.581 µM
EC50 ([12]; MOLT-4 cell line, read-out: Haematopoietic & Lymphoid tumors, EC50 (μM) MOLT-4): 0.999 µM
EC50 ([12]; TF-1 cell line, read-out: Haematopoietic & Lymphoid tumors, EC50 (μM) TF-1): 1.31 µM
EC50 ([12]; TOLEDO cell line, read-out: Haematopoietic & Lymphoid tumors, EC50 (μM) TOLEDO): 0.182 µM
EC50 ([13]; SNU-398, SNU398 cell line, read-out: Liver cancer, EC50 SNU398): 450 nM
EC50 ([13]; HEPG2 cell line, read-out: Liver cancer, EC50 HEPG2): 1460 nM
EC50 ([13]; PLC/PRF/5 cell line, read-out: Liver cancer, EC50 PLC/PRF/5): 3160 nM
EC50 ([14]; A-427, A427 cell line, read-out: Lung cancer, EC50 (μM) A427): 0.619 µM
EC50 ([14]; HCC78, HCC-78 cell line, read-out: Lung cancer, EC50 (μM) HCC-78): 3.02 µM
EC50 ([14]; NCI-H460 cell line, read-out: Lung cancer, EC50 (μM) NCI-H460): 0.856 µM
EC50 ([14]; NCI-H522 cell line, read-out: Lung cancer, EC50 (μM) NCI-H522): 0.57 µM
EC50 ([15]; PA-1, PA1 cell line, read-out: Ovarian cancer, EC50 (μM) PA1): 0.819 µM
EC50 ([15]; TOV112D, TOV-112D cell line, read-out: Ovarian cancer, EC50 (μM) TOV-112D): 0.533 µM
EC50 ([15]; OV-90 cell line, read-out: Ovarian cancer, EC50 (μM) OV-90): 1.98 µM
EC50 ([15]; OVCAR-3 cell line, read-out: Ovarian cancer, EC50 (μM) OVCAR-3): 0.568 µM
EC50 ([16]; BXPC-3, BxPC3 cell line, read-out: Pancreatic cancer, EC50 BxPC3): 2030 nM
EC50 ([16]; CAPAN-1, Capan1 cell line, read-out: Pancreatic cancer, EC50 Capan1): 2090 nM
EC50 ([16]; Capan-2, Capan2 cell line, read-out: Pancreatic cancer, EC50 Capan2): 2720 nM
EC50 ([16]; MIA PaCa-2 cell line, read-out: Pancreatic cancer, EC50 MIA PaCa-2): 438 nM
EC50 ([16]; PANC 05.04 cell line, read-out: Pancreatic cancer, EC50 PANC 05.04): 2260 nM
EC50 ([16]; PANC-1 cell line, read-out: Pancreatic cancer, EC50 PANC-1): 2160 nM
EC50 ([16]; UPAFII cell line, read-out: Pancreatic cancer, EC50 UPAFII): 1030 nM
EC50 ([17]; DU-145, read-out: Prostate cancer EC50 Du-145): 1260 nM
EC50 ([17]; PC-3, PC3 cell line, inhibition of cancer cell proliferation, read-out: Prostate cancer EC50 PC3): 1230 nM
EC50 ([17]; 22Rv1 cell line, inhibition of cancer cell proliferation, read-out: Prostate cancer EC50 22Rv1): 672 nM
EC50 ([17]; LNCap clone FGC cell line, inhibition of cancer cell proliferation, read-out: Prostate cancer EC50 LNCap clone FGC): 779 nM
EC50 ([17]; VCaP (Sigma) cell line, inhibition of cancer cell proliferation, read-out: Prostate cancer EC50 VCaP (Sigma)): 1480 nM
EC50 [18]: 49.1 nM
Structure (SMILES): CN1CCC(Oc2ccc(NC(=O)c3n[nH]c4cc(F)c(-c5cnn(C)c5)cc34)cc2)CC1 [Compound 61]
EC50 [10]: 1220 nM
